# Entries after “also recorded” stand apart in the source; their conditions may differ.
# How the values were obtained:
# human lymphocytes = assay: inhibition of mitogen (PHA)-stimulated growth of human T-cells; conditions: 10 μg/ml
# Procedure: Specific assays were used to identify steroids with a particular biological activity, such as an assay for inhibition of mitogen-stimulated growth of human T-cells.
# Human heparinized blood, freshly collected, was introduced into tissue culture flasks containing 10 μg/ml phytohaemagglutinin (PHA) in RPMI medium with 10% FCS. Various purified steroids were introduced subsequently at concentrations of 1, 5, and 10 μg/ml. Cultures were incubated for 72 hours, after which time colcemid was added to 1 μg/ml. Cultures were maintained for an additional 2 hours, and cells collected. Miotic figures were estimated using standard cytochemical techniques, following Giemsa staining.
# Murine B16 melanoma = assay: growth inhibition in vitro; assay type: cell-based; conditions: except at very high concentrations
# Excerpt: As set forth in Table 7 below, all malignant tumors evaluated in tissue culture, endothelial cells and vascular smooth muscle cells were sensitive to inhibition. Thus, compound 1436 has application in the control of growth factor dependent proliferation of many types of tissue.
# [1] = tested on: human epithelial cell line MCF 10A; assay: growth inhibition of epithelial cells in vitro (absorbance at 600 nm); assay type: cell-based; conditions: 10 μg/ml, FIG. 3B
# rabbit NHE3 = rabbit NHE3 (Oryctolagus cuniculus, UniProt P26432)
# Procedure: Internal pH was measured either following acid loading or in the absence of an acid-loading challenge, with the results shown in FIGS. 1A and 1B.
# Specifically, PS120 fibroblasts transfected with rabbit NHE3 were grown in supplemented Dulbecco's-modified Eagle's medium as described by Levine et al., J. Biol. Chem. 268, 1993, 25527-25535. […] For cells not acid-preloaded, the actual internal pH value was monitored as a function of time following addition of squalamine, with the results depicted in FIG. 1B.
# PS120 fibroblasts transfected with rabbit NHE3 were grown and acid preloaded by exposure to 40 mM NH4 Cl as described above in conjunction with FIGS. 1A and 1B. Internal cellular pH changes expressed as the rate of pH recovery as a function of restored extracellular sodium ion concentration following exposure to 10 μg/ml of the compound were assayed with the fluorescent dye BCECF-AM as described above.
# mouse IV PK study = assay type: in vivo; conditions: i.v., mouse blood stream, HPLC
# Procedure: To assess clearance, a mouse IV PK study was performed for compound 319 and squalamine. The compound was administered i.v. and blood samples were taken every 10 minutes. The concentration of the administered steroid was determined by HPLC analysis.
# [2] = tested on: human umbilical venous endothelial cells; assay: LPS-induced neutrophil adherence to human umbilical venous endothelial cells; conditions: 10 μg, 1.0 μg, or 0.1 μg; activated human endothelial cells
# Procedure: In these experiments, approximately 2×10^5 human umbilical venous cells (passage 2-6) were plated per well. The cells were grown in serum-free media overnight. For induction, either TNF-α (40 ng/ml) was added to endothelial cells for 6 hours prior to adding neutrophils or LPS (100 ng/ml) was added for 4-6 hours. […] After activation of the endothelial cells, approximately 50×10^6 neutrophils were added per well. The plates were gently rocked for 30 minutes at room temperature, followed by removal of the media and washing in serum-free media three times and then photographing of each well. […] A monoclonal Ab to ICAM-1 was a positive control.
# [3] = tested on: chick embryo vitelline capillaries; assay: chick embryo vitelline capillary regression assay; assay type: in vivo
# Procedure: Using the chick embryo vitelline capillaries assay, compounds were tested for their ability to induce capillary regression. Each compound was applied in 0.1 ml of 15% Ficol 400 and PBS onto the embryo, and vascular regression was assessed after 60 minutes.
# The 3-day chick embryo consists of an embryonic disc from which numerous vessels emerge and return, forming a "FIG. 8"-shaped structure--the embryo in the center with vascular loops extending outward over both poles. […] Following a lag period of around 15 minutes, the constriction of continuity between capillary and secondary vessels, generally on the "venous" side, was observed. Continued pulsatile blood flow progressed, resulting in a "swelling" of the blind tube, followed by a pinching off of the remaining connection and formation of an enclosed vascular sac resembling a "blood island." This process progressed until only the largest vessels remained intact.
# [4] = tested on: human coronary artery smooth muscle; assay: proliferation of human coronary artery smooth muscle in vitro; assay type: cell-based; conditions: FIG. 15
# Excerpt: Aminosterols of the invention may also have utility in inhibiting the growth factor mediated proliferation of smooth muscle within the artery. Following coronary angioplasty, reocclusion commonly occurs, secondary to reparative proliferation of the vascular smooth muscle within the wall of the surgically manipulated blood vessel. This process generally takes place over the course of 7-10 days. To evaluate whether an agent could prevent the growth factor mediated proliferation of smooth muscle within the artery, compound 1436 was evaluated in vitro for its effect on the proliferation of human coronary artery smooth muscle. Results for compound 1436 are shown in FIG. 13, and those for squalamine are shown in FIG. 14, with FIG. 15 being a composite logarithmic plot.
# human NHE1 = assay: internal pH changes in PS120 fibroblasts transfected with human NHE1; assay type: cell-based; conditions: 5 μg/ml, FIG. 2B
# Procedure: (§1) PS120 fibroblasts transfected with rabbit: or human NHE1 were grown as described above.
# rabbit NHE1 = assay: internal pH changes in PS120 fibroblasts transfected with rabbit NHE1; assay type: cell-based; conditions: 5 μg/ml, FIG. 2A
# Procedure: as §1
# [5] = tested on: chick chorioallantoic membrane; assay: chorioallantoic membrane (CAM) model, inhibition of capillary growth; assay type: in vivo; conditions: 3-Day embryo
# Excerpt: The growing capillaries within the chorioallantoic membrane model (CAM model) have been used as a system in which to evaluate the effect of agents on their potential to inhibit new vessel growth. Neovascularization occurs most aggressively over the first week of embryonic development. Thereafter capillary growth is characterized by principally "elongation" rather than "de novo" formation.
# In the standard assay, agents are applied locally to a region of the embryo over which neovascularization will occur. Agents are assessed by their ability to inhibit this process, as evaluated by visual examination about 7 days after application. […] The assay utilized is described in detail in Auerbach et al., Pharm. Ther. 51, 1991, 1-11.
# [6] = tested on: human microvascular cells; assay: inhibition of endothelial cell cord formation in vitro; assay type: cell-based
# In short: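 Human microvascular endothelial cells plated on collagen matrix with VEGF and basic FGF; compound effect on cord-like structure formation scored in a standard cord formation assay.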
# P. aerug = assay: antibiotic activity (MIC); assay type: cell-based; conditions: P. aerug; read-out: MIC
# Excerpt: (§2) Thus, it is possible to achieve an antimicrobial steroid with or without squalamine-like pharmacological activity.
# C. albicans = assay: antibiotic activity (MIC); assay type: cell-based; conditions: Candida albicans; C. albicans; read-out: MIC
# Excerpt: as §2
# S. aureus = assay: antibiotic activity (MIC); assay type: cell-based; conditions: Staphylococcus aureus; S. aureus; read-out: MIC
# Excerpt: as §2
# E. coli = assay: antibiotic activity (MIC); assay type: cell-based; conditions: Escherichia coli; E. coli; read-out: MIC
# Excerpt: as §2
# [7] = tested on: human foreskin fibroblasts; assay: growth inhibition of fibroblasts in vitro (absorbance at 600 nm); assay type: cell-based; conditions: 10 μg/ml, FIG. 3C
# [8] = tested on: bovine pulmonary endothelial cells; assay: growth inhibition of endothelial cells in vitro (absorbance at 600 nm); assay type: cell-based; conditions: 1 μg/ml, FIG. 3A
# Sequence of rabbit NHE3 (P26432 30-832): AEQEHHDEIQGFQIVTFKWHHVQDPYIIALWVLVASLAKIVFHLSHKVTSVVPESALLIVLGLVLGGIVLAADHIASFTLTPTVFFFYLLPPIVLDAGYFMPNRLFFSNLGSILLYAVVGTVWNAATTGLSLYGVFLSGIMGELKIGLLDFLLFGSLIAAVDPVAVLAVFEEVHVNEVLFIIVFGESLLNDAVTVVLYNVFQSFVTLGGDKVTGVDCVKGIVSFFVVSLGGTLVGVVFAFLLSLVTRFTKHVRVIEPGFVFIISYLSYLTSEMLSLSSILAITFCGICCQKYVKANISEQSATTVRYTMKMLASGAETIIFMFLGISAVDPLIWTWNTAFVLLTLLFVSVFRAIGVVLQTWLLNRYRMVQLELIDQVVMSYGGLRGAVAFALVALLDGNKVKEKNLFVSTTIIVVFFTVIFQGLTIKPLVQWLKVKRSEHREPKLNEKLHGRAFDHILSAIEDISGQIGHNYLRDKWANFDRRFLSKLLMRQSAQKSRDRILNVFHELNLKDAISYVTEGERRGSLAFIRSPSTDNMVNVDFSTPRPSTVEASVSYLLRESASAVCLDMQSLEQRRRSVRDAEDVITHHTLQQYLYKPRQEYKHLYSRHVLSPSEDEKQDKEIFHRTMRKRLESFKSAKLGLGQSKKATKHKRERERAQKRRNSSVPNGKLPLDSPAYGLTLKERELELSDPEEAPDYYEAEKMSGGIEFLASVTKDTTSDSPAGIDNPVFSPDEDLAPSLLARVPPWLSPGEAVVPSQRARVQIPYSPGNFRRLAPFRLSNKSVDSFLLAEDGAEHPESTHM
smiles,measurement,setting,value
CC(C)[C@@H](CC[C@@H](C)[C@H]1CC[C@H]2[C@@H]3[C@H](O)C[C@H]4C[C@@H](NCCCNCCCCN)CC[C@]4(C)[C@H]3CC[C@]12C)OS(=O)(=O)O [Compound 1256],inhibition of blast transformation,human lymphocytes,Some effect
same,cytostatic activity against B16 in culture,Murine B16 melanoma,minimal cytostatic activity
same,growth of epithelial cells,[1],no effect on the growth
same,inhibition of NHE3 (rate of pH recovery),"rabbit NHE3; 5 μg/ml squalamine, FIGS. 1A, 1B",inhibited NHE3 with respect to proton concentration at both Km and Vmax levels
same,resting pH of cells,"rabbit NHE3; 5 μg/ml, FIG. 1B, not acid-preloaded",the resting pH of these cells was also inhibited
same,half-life,mouse IV PK study,~35 min
same,inhibition of neutrophil adherence,[2],no inhibition
same,effect on vitelline capillaries,[3]; 3- to 5-day chick embryos,disrupt vitelline capillaries
same,relative activity,[3]; Table 5,especially active
same,lag period,[3]; constriction between capillary and secondary vessels,around 15 minutes
same,hemorrhage / hemolysis,"[3]; in vivo, listed as Squalamine",No hemorrhage was seen; also recorded: absence of hemolysis
same,growth of human coronary artery smooth muscle,[4],suppress in vitro the growth
same,inhibition of human NHE1,human NHE1,no inhibitory activity
same,inhibition of rabbit NHE1,rabbit NHE1,no inhibitory activity
same,Percentage positive,"[5]; 0.65 μg, Assay 1",28 Percentage
same,Percentage positive,"[5]; 1.25 μg, Assay 1",18 Percentage
same,Percentage positive,"[5]; 1.25 μg, Assay 2",18 Percentage
same,Percentage positive,"[5]; 1.25 μg, Mean",18 Percentage
same,Percentage positive,"[5]; 2.5 μg, Assay 1",35 Percentage
same,Percentage positive,"[5]; 2.5 μg, Assay 2",18 Percentage
same,Percentage positive,"[5]; 2.5 μg, Mean",27 Percentage
same,Percentage positive,"[5]; 5.0 μg, Assay 1",91 Percentage
same,Percentage positive,"[5]; 5.0 μg, Assay 2",57 Percentage
same,Percentage positive,"[5]; 5.0 μg, Mean",74 Percentage
same,Percentage positive,"[5]; 20 μg, Assay 1, some vascular irritation",52 Percentage
same,Percentage positive,"[5]; 20 μg, Assay 2, some vascular irritation",58 Percentage
same,Percentage positive,"[5]; 20 μg, Mean",55 Percentage
same,Percentage positive,"[5]; 40 μg, Assay 1, some vascular irritation",50 Percentage
same,Percentage positive,"[5]; 40 μg, Assay 2, some vascular irritation",13 Percentage
same,Percentage positive,"[5]; 40 μg, Mean",32 Percentage
same,vascular irritation,[5]; 20 and 40 μg,Some vascular irritation noted
same,minimal effective concentration,"[6]; Homo sapiens, Endothelial cell, Table II, read-out: Minimum Effective Concentration, Cord Formation",0.01 to 0.1 µg/mL
same,cell viability or proliferation,[6]; at cord-inhibiting concentrations,does not appear to profoundly affect cell viability or proliferation
same,MIC,P. aerug,16 µg/mL
same,MIC,C. albicans,8 µg/mL
same,MIC,S. aureus,0.5 to 1 µg/mL
same,MIC,E. coli,2 to 4 µg/mL
same,growth of fibroblasts,[7],no effect on the growth
same,growth of bovine pulmonary artery endothelial cells,[8],inhibited the growth
